Measurements from ChEMBL document CHEMBL4229455, “Synthesis and anticancer activity of novel bisindolylhydroxymaleimide derivatives with potent GSK-3 kinase inhibition” (Bioorg Med Chem, 2018).
pIC50: −log10 of the molar value.

Key:
NCI-H460 = assay: Cytotoxicity against human NCI-H460 cells assessed as cell growth at 10 uM after 48 hrs by SRB assay relative to control; assay type: functional; conditions: NCI-H460, 48 h, read-out: Activity
[1] = target: Glycogen synthase kinase-3 (Sus scrofa, UniProt B2LUN4+I6LNT8); assay: Inhibition of domestic porcine brain full length GSK-3alpha/beta using GS-1 as substrate in presence of [gamma-33P]ATP; parameters: species or system Sus scrofa domesticus
[2] = target: Dual specificity tyrosine-phosphorylation-regulated kinase 1A (Rattus norvegicus, UniProt Q63470); assay: Inhibition of recombinant rat DYRK1A kinase domain expressed in bacteria using KKISGRLSPIMTEQ as substrate in presence of [gamma-33P]ATP
OVCAR-3 = assay: Cytotoxicity against human OVCAR3 cells assessed as cell growth at 10 uM after 48 hrs by SRB assay relative to control; assay type: functional; conditions: OVCAR-3, 48 h, read-out: Activity
[3] = target: Receptor-interacting serine/threonine-protein kinase 3 (Homo sapiens, UniProt Q9Y572); assay: Inhibition of recombinant full length human RIPK3 expressed in baculovirus infected Sf9 insect cells assessed as residual activity at 10 uM using MBP as substrate in presence of [gamma-33P]ATP
Sequence of Receptor-interacting serine/threonine-protein kinase 3 (Q9Y572 whole entry, looked up, the tested form may be a part): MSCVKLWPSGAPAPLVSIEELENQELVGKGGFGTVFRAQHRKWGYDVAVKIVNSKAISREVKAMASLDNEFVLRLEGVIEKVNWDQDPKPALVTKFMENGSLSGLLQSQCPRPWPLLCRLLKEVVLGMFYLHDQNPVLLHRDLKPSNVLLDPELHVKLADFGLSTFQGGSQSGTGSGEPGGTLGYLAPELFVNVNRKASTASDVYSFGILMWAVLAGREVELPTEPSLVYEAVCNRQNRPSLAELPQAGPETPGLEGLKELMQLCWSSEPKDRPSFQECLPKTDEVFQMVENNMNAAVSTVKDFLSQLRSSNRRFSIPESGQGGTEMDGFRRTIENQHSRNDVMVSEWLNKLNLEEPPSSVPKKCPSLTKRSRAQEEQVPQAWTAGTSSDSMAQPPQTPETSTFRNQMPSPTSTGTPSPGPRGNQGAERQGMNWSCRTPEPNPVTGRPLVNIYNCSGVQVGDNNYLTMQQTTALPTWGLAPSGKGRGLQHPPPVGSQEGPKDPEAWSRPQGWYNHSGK

[4] = target: T1, Serine/threonine-protein kinase haspin (Homo sapiens) (UniProt Q8TF76); assay: Inhibition of recombinant human haspin kinase domain expressed in bacteria assessed as residual activity at 10 uM using histone H3 (1 to 21 residues) peptide as substrate in presence of [gamma-33P]ATP
T1 sequence (whole entry): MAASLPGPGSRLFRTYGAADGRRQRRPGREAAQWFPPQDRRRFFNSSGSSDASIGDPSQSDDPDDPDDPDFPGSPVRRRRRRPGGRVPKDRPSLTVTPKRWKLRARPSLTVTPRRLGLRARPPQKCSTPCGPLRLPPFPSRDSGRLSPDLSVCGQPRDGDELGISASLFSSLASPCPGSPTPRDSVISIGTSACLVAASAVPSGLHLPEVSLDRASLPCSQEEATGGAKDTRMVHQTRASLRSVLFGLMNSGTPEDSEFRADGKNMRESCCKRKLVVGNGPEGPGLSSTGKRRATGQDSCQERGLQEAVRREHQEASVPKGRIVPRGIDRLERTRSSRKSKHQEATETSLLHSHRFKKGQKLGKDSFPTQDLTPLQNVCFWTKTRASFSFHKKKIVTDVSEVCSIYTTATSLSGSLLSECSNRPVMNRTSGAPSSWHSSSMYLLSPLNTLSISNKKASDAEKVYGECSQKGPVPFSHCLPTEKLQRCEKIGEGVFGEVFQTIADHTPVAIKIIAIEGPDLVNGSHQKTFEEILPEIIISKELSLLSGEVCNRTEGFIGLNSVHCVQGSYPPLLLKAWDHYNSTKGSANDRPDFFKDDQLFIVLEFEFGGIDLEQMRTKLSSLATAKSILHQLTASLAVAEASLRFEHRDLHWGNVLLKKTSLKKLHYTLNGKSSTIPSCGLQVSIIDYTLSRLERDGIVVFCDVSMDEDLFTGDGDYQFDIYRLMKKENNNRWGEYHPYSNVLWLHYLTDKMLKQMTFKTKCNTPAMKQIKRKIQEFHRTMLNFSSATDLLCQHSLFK

[5] = target: T2, Serine/threonine-protein kinase haspin (Homo sapiens, UniProt Q8TF76); assay: Inhibition of recombinant human haspin kinase domain expressed in bacteria using histone H3 (1 to 21 residues) peptide as substrate in presence of [gamma-33P]ATP
T2 sequence (Q8TF76 whole entry): T1 sequence (whole entry)

DU-145 = assay: Cytotoxicity against human DU145 cells assessed as cell growth at 10 uM after 48 hrs by SRB assay relative to control; assay type: functional; conditions: DU-145, 48 h, read-out: Activity
HCC 2998 = assay: Cytotoxicity against human HCC2998 cells assessed as cell growth at 10 uM after 48 hrs by SRB assay relative to control; assay type: functional; conditions: HCC 2998, 48 h, read-out: Activity
A549 = assay: Cytotoxicity against human A549 cells assessed as cell growth at 10 uM after 48 hrs by SRB assay relative to control; assay type: functional; conditions: A549, 48 h, read-out: Activity
SN12C = assay: Cytotoxicity against human SN12C cells assessed as cell growth at 10 uM after 48 hrs by SRB assay relative to control; assay type: functional; conditions: read-out: Activity
Aurora kinase B = Aurora kinase B (Homo sapiens, UniProt Q96GD4); assay: Inhibition of recombinant full length human aurora B expressed in baculovirus infected Sf9 insect cells assessed as residual activity at 10 uM using MBP as substrate in presence of [gamma-33P]ATP
Sequence of Aurora kinase B (Q96GD4 whole entry): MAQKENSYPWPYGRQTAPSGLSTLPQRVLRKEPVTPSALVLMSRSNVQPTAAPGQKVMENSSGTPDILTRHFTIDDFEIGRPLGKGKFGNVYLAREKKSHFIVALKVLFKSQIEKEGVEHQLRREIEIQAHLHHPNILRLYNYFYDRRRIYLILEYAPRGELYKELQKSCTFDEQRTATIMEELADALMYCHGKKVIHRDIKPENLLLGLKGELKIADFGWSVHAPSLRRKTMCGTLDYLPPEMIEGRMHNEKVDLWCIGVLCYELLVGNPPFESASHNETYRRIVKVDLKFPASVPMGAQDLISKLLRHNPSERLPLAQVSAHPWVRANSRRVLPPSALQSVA

SNB-75 = assay: Cytotoxicity against human SNB75 cells assessed as cell growth at 10 uM after 48 hrs by SRB assay relative to control; assay type: functional; conditions: SNB-75, 48 h, read-out: Activity
SK-OV-3 = assay: Cytotoxicity against human SKOV3 cells assessed as cell growth at 10 uM after 48 hrs by SRB assay relative to control; assay type: functional; conditions: SK-OV-3, 48 h, read-out: Activity
MDA-MB-468 = assay: Cytotoxicity against human MDA-MB-468 cells assessed as cell growth at 10 uM after 48 hrs by SRB assay relative to control; assay type: functional; conditions: MDA-MB-468, 48 h, read-out: Activity
RXF 393 = assay: Cytotoxicity against human RXF393 cells assessed as cell growth at 10 uM after 48 hrs by SRB assay relative to control; assay type: functional; conditions: RXF 393, 48 h, read-out: Activity
M14 = assay: Cytotoxicity against human M14 cells assessed as cell growth at 10 uM after 48 hrs by SRB assay relative to control; assay type: functional; conditions: M14, 48 h, read-out: Activity
[6] = target: Cyclin-dependent kinase 5/CDK5 activator 1 (Homo sapiens, UniProt Q00535); assay: Inhibition of recombinant full length human CDK5/p25 expressed in bacteria using histone H1 as substrate in presence of [gamma-33P]ATP
Sequence of Cyclin-dependent kinase 5/CDK5 activator 1 (Q00535 whole entry): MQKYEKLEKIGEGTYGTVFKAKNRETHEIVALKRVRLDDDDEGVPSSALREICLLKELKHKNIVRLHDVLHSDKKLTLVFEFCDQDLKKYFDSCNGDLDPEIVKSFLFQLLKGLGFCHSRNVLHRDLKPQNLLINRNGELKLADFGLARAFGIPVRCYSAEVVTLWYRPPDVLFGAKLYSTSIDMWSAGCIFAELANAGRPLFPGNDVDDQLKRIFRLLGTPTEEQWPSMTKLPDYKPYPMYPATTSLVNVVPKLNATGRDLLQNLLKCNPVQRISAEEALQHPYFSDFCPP
Sequence of Cyclin-dependent kinase 5/CDK5 activator 1 (Q15078 whole entry, further chain): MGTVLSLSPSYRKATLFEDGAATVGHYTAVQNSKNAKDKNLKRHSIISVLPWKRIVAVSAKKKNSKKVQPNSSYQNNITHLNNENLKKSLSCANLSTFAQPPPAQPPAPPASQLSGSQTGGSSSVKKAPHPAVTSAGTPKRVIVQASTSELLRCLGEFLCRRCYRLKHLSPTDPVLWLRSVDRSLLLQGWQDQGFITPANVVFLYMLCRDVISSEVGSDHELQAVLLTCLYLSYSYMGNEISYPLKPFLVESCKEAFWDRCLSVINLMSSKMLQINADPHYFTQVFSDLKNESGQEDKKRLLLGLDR

BT-549 = assay: Cytotoxicity against human BT549 cells assessed as cell growth at 10 uM after 48 hrs by SRB assay relative to control; assay type: functional; conditions: BT-549, 48 h, read-out: Activity
NCI/ADR-RES = assay: Cytotoxicity against human NCI-ADR-RES cells assessed as cell growth at 10 uM after 48 hrs by SRB assay relative to control; assay type: functional; conditions: read-out: Activity
TK-10 = assay: Cytotoxicity against human TK10 cells assessed as cell growth at 10 uM after 48 hrs by SRB assay relative to control; assay type: functional; conditions: TK-10, 48 h, read-out: Activity
SR = assay: Cytotoxicity against human SR cells assessed as cell growth at 10 uM after 48 hrs by SRB assay relative to control; assay type: functional; conditions: read-out: Activity
RPMI-8226 = assay: Cytotoxicity against human RPMI8226 cells assessed as cell growth at 10 uM after 48 hrs by SRB assay relative to control; assay type: functional; conditions: RPMI-8226, 48 h, read-out: Activity
SK-MEL-2 = assay: Cytotoxicity against human SK-MEL-2 cells assessed as cell growth at 10 uM after 48 hrs by SRB assay relative to control; assay type: functional; conditions: SK-MEL-2, 48 h, read-out: Activity

SMILES	growth at 10 µM (NCI-H460) [%]	IC50 [1] [µM]	pIC50 [2]	growth at 10 µM (OVCAR-3) [%]	Activity [3] [%]	Activity [4] [%]	pIC50 [5]	growth at 10 µM (DU-145) [%]	growth at 10 µM (HCC 2998) [%]	growth at 10 µM (A549) [%]	growth at 10 µM (SN12C) [%]	Activity (Aurora kinase B) [%]	growth at 10 µM (SNB-75) [%]	growth at 10 µM (SK-OV-3) [%]	growth at 10 µM (RXF 393) [%]	growth at 10 µM (M14) [%]	pIC50 [6]	growth at 10 µM (BT-549) [%]	growth at 10 µM (NCI/ADR-RES) [%]	growth at 10 µM (TK-10) [%]	further results
Cn1cc(C2=C(c3cn(CCCCCC(=O)O)c4ccccc34)C(=O)N(O)C2=O)c2ccccc21	108	3.2	6.00	104	106	103	< 5.00	109	110	94.6	95.2	71	86.5	99.8	111	103	< 5.00	103	100	107	growth at 10 µM (MDA-MB-468): 102%; growth at 10 µM (SR): 89.6%; growth at 10 µM (RPMI-8226): 96.8%
Cn1cc(C2=C(c3c[nH]c4ccccc34)C(=O)N(O)C2=O)c2ccccc21	87.4	0.2	< 5.00	84.7	100	112	< 5.00	100	89.9	91.9	97.8	79	72.5	92.1	86.3	81	< 5.00	82.7	89.5	120	growth at 10 µM (SK-MEL-2): 76.4%; growth at 10 µM (SR): 30.9%; growth at 10 µM (RPMI-8226): 51.7%
CC(C)n1cc(C2=C(c3c[nH]c4ccccc34)C(=O)N(O)C2=O)c2ccccc21	95.3	1.5	< 5.00	92.7	97	123	< 5.00	107	105	102	101	147	82.6	102	100	98.9	< 5.00	99.7	102	84.5	growth at 10 µM (SK-MEL-2): 86.8%; growth at 10 µM (SR): 85.7%; growth at 10 µM (RPMI-8226): 56.9%
CC(C)n1cc(C2=C(c3cn(C)c4ccccc34)C(=O)N(O)C2=O)c2ccccc21	98.3	0.2	< 5.00	87.6	103	127	< 5.00	192	110	97.1	95.2	95	84.9	95.8	89.2	94.8	< 5.00	93.2	92.4	127	growth at 10 µM (SK-MEL-2): 86.6%; growth at 10 µM (RPMI-8226): 68.3%
